Data: US8003670B2, “Aminoalkoxy aryl sulfonamide compounds and their use as 5-HT6 ligands” (Suven Life Sciences Limited, priority 2007, dated 2011)
Where a name gives a salt, the structure may show the parent alone.

Legend:
[1] = target: T1, 5-HT6 receptor (Homo sapiens, UniProt P50406); test: Binding assay for human 5-HT6 receptor ([3H]LSD radioligand); design: expressed in transfected cells; host or cells: HEK293; details: human recombinant receptor in HEK293 cells, [3H]LSD 1.5 nM; for inhibition at 0.1 µM: 100 nM test compound, read-out: Radioligand binding data at 5-HT6 R (h) % Inhibition of specific binding at 100 nM; for Ki: 37° C., read-out: Radioligand binding data at 5-HT6 R (h) Ki
Experimental: Compounds can be tested according to the following the procedures.
Receptor source: Human recombinant expressed in HEK293 cells
Radioligand: [^3H]LSD (60-80 Ci/mmol)
Final ligand concentration—[1.5 nM]
Non-specific determinant: Methiothepin mesylate—[0.1 μM]
Reference compound: Methiothepin mesylate
Positive control: Methiothepin mesylate
Reactions were carried out in […] TRIS-HCl (pH 7.4) containing […] MgCl2, 0.5 mM EDTA for […] at 37° C. The reaction was terminated by rapid vacuum filtration onto glass fiber filters. Radioactivity trapped onto the filters was determined and compared to control values in order to ascertain any interactions of test compound(s) with the cloned serotonin 5-HT6 binding site.
Mol. Pharmacol. (43): 320-327 (1993).

[2] = test system: animal models for schizophrenia; details: literature (Pouzet et al. 2002); cited from earlier work
[3] = target: T1, 5-HT6 receptor; details: literature; cited from earlier work

T1 sequence (P50406 whole entry): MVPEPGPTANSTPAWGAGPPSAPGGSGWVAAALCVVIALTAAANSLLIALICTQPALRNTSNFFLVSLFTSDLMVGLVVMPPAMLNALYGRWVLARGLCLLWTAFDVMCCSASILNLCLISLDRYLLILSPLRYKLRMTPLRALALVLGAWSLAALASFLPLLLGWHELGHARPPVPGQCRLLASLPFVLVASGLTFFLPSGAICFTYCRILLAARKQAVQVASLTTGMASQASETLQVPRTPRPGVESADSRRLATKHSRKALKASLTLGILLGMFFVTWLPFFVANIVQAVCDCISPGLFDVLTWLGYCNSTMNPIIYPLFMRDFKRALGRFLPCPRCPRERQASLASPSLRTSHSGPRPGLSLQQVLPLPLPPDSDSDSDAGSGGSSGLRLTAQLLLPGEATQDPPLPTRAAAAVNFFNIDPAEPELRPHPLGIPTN

## CCc1ccc(S(=O)(=O)n2cc(Br)c3cc(F)ccc32)cc1OC1CCNCC1.Cl
other
  melting point: 289.9 to 291.5 °C

## CCc1ccc(S(=O)(=O)n2ccc3cc(F)ccc32)cc1OC1CCNCC1.Cl
other
  melting point: 201.46 to 204.21 °C

## Cl.O=S(=O)(c1ccc(Cl)c(OC2CCNCC2)c1)n1ccc2ccc(Cl)cc21
other
  melting point: 258.3 to 259.5 °C

## CN1CCC(Oc2cccc(S(=O)(=O)n3ccc4cc(F)ccc43)c2)CC1 [Example 8, 5-Fluoro-1-[3′-(1-methylpiperidin-4-yloxy)benzenesulfonyl]-1H-indole]
[1]
  inhibition at 0.1 µM: 61.7%

## COc1ccc2c(ccn2S(=O)(=O)c2cccc(OC3CCN(C)CC3)c2)c1 [Example 9, 5-Methoxy-1-[3′-(1-methylpiperidin-4-yloxy)benzenesulfonyl]-1H-indole]
[1]
  inhibition at 0.1 µM: 58.2%

## Cc1ccc(S(=O)(=O)n2ccc3ccccc32)cc1OCCN(C)C [Example 10, 1-[4′-Methyl-3′-(N,N-dimethylaminoethoxy)benzenesulfonyl]-1H-indole]
[1]
  Ki: 2.75 nM

## Cc1ccc(S(=O)(=O)n2ccc3cc(F)ccc32)cc1OCCN(C)C [Example 11, 5-Fluoro-1-[4′-methyl-3′-(N,N-dimethylaminoethoxy)benzenesulfonyl]-1H-indole]
[1]
  Ki: 5.87 nM

## Cc1ccc(S(=O)(=O)n2ccc3cc(Br)ccc32)cc1OCCN(C)C [Example 12, 5-Bromo-1-[4′-methyl-3′-(N,N-dimethylaminoethoxy)benzenesulfonyl]-1H-indole]
[1]
  Ki: 28.3 nM

## COc1ccc2c(ccn2S(=O)(=O)c2ccc(C)c(OCCN(C)C)c2)c1 [Example 13, 1-[4′-Methyl-3′-(N,N-dimethylaminoethoxy)benzenesulfonyl]-5-methoxy-1H-indole]
[1]
  Ki: 11.2 nM

## Cc1ccc(S(=O)(=O)n2ccc3ccc(Cl)cc32)cc1OCCN(C)C [Example 15, 6-Chloro-1-[4′-methyl-3′-(N,N-dimethylaminoethoxy)benzenesulfonyl]-1H-indole]
[1]
  Ki: 1.57 nM

## Cc1ccc(S(=O)(=O)n2ccc3ccccc32)cc1OCCCN(C)C [Example 16, 1-[4′-Methyl-3′-(N,N-dimethylaminopropoxy)benzenesulfonyl]-1H-indole]
[1]
  Ki: 1.86 nM

## Cc1ccc(S(=O)(=O)n2ccc3cc(F)ccc32)cc1OCCCN(C)C [Example 17, 5-Fluoro-1-[4′-Methyl-3′-(N,N-dimethylaminopropoxy)benzenesulfonyl]-1H-indole]
[1]
  Ki: 12.5 nM

## Cc1ccc(S(=O)(=O)n2ccc3cc(Br)ccc32)cc1OCCCN(C)C [Example 18, 5-Bromo-1-[4′-Methyl-3′-(N,N-dimethylaminopropoxy)benzenesulfonyl]-1H-indole]
[1]
  Ki: 11.8 nM

## COc1ccc2c(ccn2S(=O)(=O)c2ccc(C)c(OCCCN(C)C)c2)c1 [Example 19, 1-[4′-Methyl-3′-(N,N-dimethylaminopropoxy)benzenesulfonyl]-5-methoxy-1H-indole]
[1]
  Ki: 30.9 nM

## CCOc1ccc2c(ccn2S(=O)(=O)c2ccc(C)c(OCCCN(C)C)c2)c1 [Example 20, 5-Ethoxy-1-[4′-methyl-3′-(N,N-dimethylaminopropoxy)benzenesulfonyl]-1H-indole]
[1]
  Ki: 12.4 nM

## Cc1ccc(S(=O)(=O)n2ccc3ccc(Cl)cc32)cc1OCCCN(C)C [Example 21, 6-Chloro-1-[4′-methyl-3′-(N,N-dimethylaminopropoxy)benzenesulfonyl]-1H-indole]
[1]
  Ki: 13.1 nM

## Cc1ccc(S(=O)(=O)n2ccc3cc(F)ccc32)cc1OC1CCN(C)CC1 [Example 24, 5-Fluoro-1-(4′-methyl-3′-(1-methylpiperidin-4-yloxy)benzenesulfonyl)-1H-indole hydrochloride]
[1]
  inhibition at 0.1 µM: 89.4%

## CCc1ccc(S(=O)(=O)n2ccc3ccccc32)cc1OCCN(C)C [Example 26, 1-[4′-Ethyl-3′-(N,N-dimethylaminoethoxy)benzenesulfonyl]-1H-indole]
[1]
  Ki: 1.9 nM

## CCc1ccc(S(=O)(=O)n2ccc3cc(F)ccc32)cc1OCCN(C)C [Example 30, 1-[4′-Ethyl-3′-(N,N-dimethylaminoethoxy)benzenesulfonyl]-5-fluoro-1H-indole]
[1]
  Ki: 5.44 nM

## CCc1ccc(S(=O)(=O)n2ccc3ccccc32)cc1OCCCN(C)C [Example 31, 1-[4′-Ethyl-3′-(N,N-dimethylaminopropoxy)benzenesulfonyl]-1H-indole]
[1]
  Ki: 35.2 nM

## CCc1ccc(S(=O)(=O)n2ccc3cc(Br)ccc32)cc1OCCCN(C)C [Example 32, 5-Bromo-1-[4′-Ethyl-3′-(N,N-dimethylaminopropoxy)benzenesulfonyl]-1H-indole]
[1]
  Ki: 7.55 nM

## CCc1ccc(S(=O)(=O)n2ccc3ccc(Cl)cc32)cc1OCCCN(C)C [Example 33, 1-[4′-Ethyl-3′-(N,N-dimethylaminopropoxy)benzenesulfonyl]-6-chloro-1H-indole]
[1]
  Ki: 5.8 nM

## CCc1ccc(S(=O)(=O)n2ccc3cc(F)ccc32)cc1OCCCN(C)C [Example 35, 1-[4′-Ethyl-3′-(N,N-dimethylaminopropoxy)benzenesulfonyl]-5-fluoro-1H-indole]
[1]
  Ki: 18.8 nM

## CC(C)c1ccc(S(=O)(=O)n2ccc3ccccc32)cc1OCCN(C)C [Example 36, 1-[4′-Isopropyl-3′-(N,N-dimethylaminoethoxy)benzenesulfonyl]-1H-indole]
[1]
  Ki: 13.9 nM

## COc1ccc2c(ccn2S(=O)(=O)c2ccc(C(C)C)c(OCCCN(C)C)c2)c1 [Example 43, 1-[4′-Isopropyl-3′-(N,N-dimethylaminopropoxy)benzenesulfonyl]-5-Methoxy-1H-indole]
[1]
  Ki: 62.5 nM

## COc1ccc2c(ccn2S(=O)(=O)c2ccc(C(C)C)c(OC3CCN(C)CC3)c2)c1 [Example 52, 5-Methoxy-1-[4′-isopropyl-3′-(1-methylpiperidin-4-yloxy)benzenesulfonyl]-1H-indole]
[1]
  inhibition at 0.1 µM: 31.5%

## CC(C)c1ccc(S(=O)(=O)n2ccc3cc(F)ccc32)cc1OC1CCN(C)CC1 [Example 53, 5-Fluoro-1-[4′-isopropyl-3′-(1-methylpiperidin-4-yloxy)benzenesulfonyl]-1H-indole]
other
  melting point: 73.2 to 74.5 °C
[1]
  inhibition at 0.1 µM: 66.9%

## Cc1ccc(S(=O)(=O)n2cc(C)c3ccccc32)cc1OC1CCN(C)CC1 [Example 54, 3-Methyl-1-[4′-methyl-3′-(1-methylpiperidin-4-yloxy)benzenesulfonyl]-1H-indole]
[1]
  inhibition at 0.1 µM: 99.7%

## CCc1ccc(S(=O)(=O)n2ccc3cc(OC)ccc32)cc1OC1CCN(C)CC1 [Example 55, 5-Methoxy-1-[4-ethyl-3-(1-methylpiperidin-4-yloxy)benzenesulfonyl]-1H-indole]
[1]
  inhibition at 0.1 µM: 89%

## COc1ccc2c(ccn2S(=O)(=O)c2ccc(OC)c(OC3CCNCC3)c2)c1.Cl [Example 56, 5-Methoxy-1-[4′-methoxy-3′-(piperidin-4-yloxy)benzenesulfonyl]-1H-indole hydrochloride]
other
  melting point: 231.2 to 232.7 °C
[1]
  inhibition at 0.1 µM: 88.6%

## COc1ccc(S(=O)(=O)n2ccc3cc(F)ccc32)cc1OC1CCN(C)CC1 [Example 58, 5-Fluoro-1-[4′-methoxy-3′-(1-methylpiperidin-4-yloxy)benzenesulfonyl]-1H-indole]
[1]
  inhibition at 0.1 µM: 91.6%

## CN1CCC(Oc2cc(S(=O)(=O)n3ccc4cc(F)ccc43)ccc2Cl)CC1 [Example 59, 5-Fluoro-1-[4′-chloro-3′-(1-methylpiperidin-4-yloxy)benzenesulfonyl]-1H-indole]
[1]
  inhibition at 0.1 µM: 89.8%

## COc1ccc2c(c1)c(C)cn2S(=O)(=O)c1ccc(C(C)C)c(OC2CCN(C)CC2)c1 [Example 61, 5-Methoxy-3-methyl-1-[4′-isopropyl-3′-(1-methylpiperidin-4-yloxy)benzenesulfonyl]-1H-indole]
other
  melting point: 73.2 to 74.5 °C

## COc1ccc(S(=O)(=O)n2ccc3ccc(Cl)cc32)cc1OC1CCN(C)CC1 [Example 62, 6-Chloro-1-[4′-methoxy-3′-(1-methylpiperidin-4-yloxy)benzenesulfonyl]-1H-indole]
other
  melting point: 112 to 115 °C

## COc1ccc(S(=O)(=O)n2ccc3cc(Br)ccc32)cc1OC1CCN(C)CC1 [Example 63, 5-Bromo-1-[4′-methoxy-3′-(1-methylpiperidin-4-yloxy)benzenesulfonyl]-1H-indole]
other
  melting point: 127.2 to 128 °C

## CCc1ccc(S(=O)(=O)n2cc(Br)c3cc(F)ccc32)cc1OC1CCN(C)CC1 [Example 67, 3-Bromo-5-fluoro-1-[4′-ethyl-3′-(1-methylpiperidin-4-yloxy)benzenesulfonyl]-1H-indole]
other
  melting point: 133.2 to 134.5 °C

## Cc1ccc(S(=O)(=O)n2ccc3c(Cl)cccc32)cc1OCCCN(C)C [Example 79, 4-Chloro-1-[4′-Methyl-3′-(N,N-dimethylaminopropoxy)benzenesulfonyl]-1H-indole]
[1]
  Ki: 13.6 nM

## COc1ccc(NS(=O)(=O)c2sc3ccc(Cl)cc3c2C)cc1N1CCNCC1 [SB-271046, 5-Chloro-N-(4-methoxy-3-piperazin-1-ylphenyl)-3-methyl-2-benzothiophenesulfonamide]
[2]
  Activity in animal tests related to positive or negative symptoms of schizophrenia: inactive

## CN(C)CCC=C1c2ccccc2CCc2ccccc21 [amitriptyline]
[3]
  Affinity for the 5-HT6 receptor (in words): high affinity

## CN1CCN2c3ccccc3Cc3ccccc3C2C1 (stereo not drawn) [mianserin]
[3]
  Affinity for the 5-HT6 receptor (in words): high affinity
